Measurements: US10532106B2 (priority 2014, dated 2020)
Numbered stars: 1 amine (or outer) side, 2 acyl side, 3 side chain; on linkers, the order of the positions; unused ones are H or OH. Bridge positions count the residues as written; N and C are the ends. Square brackets hold non-standard residues; d marks the D form. Peptide text beside a SMILES is read from it. TBMB = c1c(C[*:1])cc(C[*:3])cc1C[*:2]; Sar = CNCC(=O)O

Tests used:
[1] = Plasma stability, quantitative LC-MS; type: in vitro ADME, rat; details: Table 16; incubation up to 24 hrs, 4 μM
[2] = Plasma stability, quantitative LC-MS (Method #2); type: in vitro ADME, mouse
Description: […] […] Prior to LC-MS analysis, samples were defrosted, and mixed with 3 volumes (here, 120 μL) of 1:1 acetonitrile/MeOH water. The milky suspensions were centrifuged for 30 min at 13000 rpm, and peptide-containing supernatants were quantitated for doubly/triply charged species and MS/MS fragments thereof using a Waters Xevo TQ-D instrument, while using a plasma extracted standard curve of the same peptides as a reference. The half-life of degradation in plasma was used to assess the comparative stability of the molecules.

[3] = target: T1, MT1-MMP hemopexin domain (Homo sapiens, UniProt P50281); experiment: Competition assay using fluorescence polarisation; type: binding; details: murine, dog, cynomolgus and human MT1-MMP
T1 construct: residues Cys319-Gly511 from the human gene; His6 (N); made in house; host or cells: HEK293 (transient), pEXPR-IBA42 vector
Outline: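 Pre-formed PEX–fluorescent tracer complex titrated with non-fluoresceinated bicyclic peptide, which displaces tracer and lowers fluorescence polarisation. Competitor Kd obtained by fitting to the cubic-equation solution for tracer/titrant/protein equilibria, using tracer Kd from separate direct-binding FP.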

[4] = Degradation products in mouse plasma by MALDI-TOF (Method #1); type: in vitro ADME
Description: A rapid plasma stability profiling assay was developed that employed mass spectrometric detection (MALDI-TOF, Voyager DE, Applied Biosystems) of the parent mass as well as plasma-protease induced fragments thereof. By assessing the nature of the fragments, preferred cleavage sites can be determined. Here, a 1-1.5 mM peptide stock (in DMSO) was directly diluted into mouse/rat/human plasma (Sera labs, using citrate as anticoagulant), giving a final concentration of 50 μM peptide, and incubated for up to 48 hrs at 37° C. 5 μL samples were taken at appropriate time points and frozen at −80° C. For analysis, the samples were defrosted, mixed with 25 μL of 3:3:1 acetonitrile:methanol:water, and centrifuged at 13 k for 5 min. 5 μL of the peptide-containing supernatant was aspirated and mixed with 30 mM ammonium bicarbonate in a 1:1 mixture of acetonitrile:H2O. 1 μL of this was then spotted on the MALDI plate, dried, and Matrix (alpha-cyanocinnamic acid, Sigma, prepared as a saturated solution in 1:1 acetonitrile:water containing 0.1% trifluoroacetic acid) was layered over the sample (1 μL), dried and analysed using the MALDI TOF. […]
In an effort to understand the chemical nature of the degradation of 17-69-07-N219 in mouse plasma, samples were analysed using MALDI-TOF for any potential degradation products.

## CC[C@H](C)[C@@H]1NC(=O)[C@H](CC(=O)O)NC(=O)[C@H](Cc2ccc(O)cc2)NC(=O)[C@H](Cc2ccccc2)NC(=O)[C@H](CC(=O)O)NC(=O)[C@H](CCC(=O)O)NC(=O)[C@@H]2CSCc3cc(cc(c3)CSC[C@H](NC(=O)[C@H](C)NC(=O)CN(C)C(=O)CN(C)C(=O)CN(C)C(=O)CN(C)C(=O)CN(C)C(=O)CN(C)C(=O)CN(C)C(=O)CN(C)C(=O)CN(C)C(=O)CN(C)C(=O)CN)C(=O)N[C@@H](Cc3ccc(O)cc3)C(=O)N[C@@H](CC(N)=O)C(=O)N[C@@H](CCC(=O)O)C(=O)N[C@@H](Cc3ccccc3)C(=O)NCC(=O)N2)CSC[C@@H](C(N)=O)NC1=O [17-69-07-N219, G-Sar10-A-(17-69-07)] (H-G[Sar][Sar][Sar][Sar][Sar][Sar][Sar][Sar][Sar][Sar]ACYNEFGCEDFYDIC-NH2; linker 13-19-26 via TBMB)
[1]
  t1/2 (hrs) (rat plasma): 3.7 ± 0^ hrs
[2]; Table 16, incubation up to 24 hrs, 4 μM
  t1/2 (hrs) (mouse plasma): 3.9 ± 0.3 h
[2]; ex vivo mouse plasma at 37° C. (FIG. 1, FIG. 3A)
  half-life in mouse plasma: 6 h
[3]
  species cross-reactivity: fully cross reactive
[4]
  degradation products: possible loss of tyrosine
